This passage reports photoluminescence quantum yield results from the Deep4Chem optical property database.

The nature of this series: photoluminescence quantum yield (fraction); solvent given as SMILES.

As for `N#C/C(=N/Nc1ccc(C#N)cc1)c1nc(-c2ccccc2)cs1`, the photoluminescence quantum yield runs as follows: (in CC#N) 0; (in CCO) 0.0001; (in CN(C)C=O) 0; (in Cc1ccccc1) 0.0001; (in ClCCl) 0.0001.

On to `c1ccc2cc3cc(-c4cc(-c5nccs5)nc(-c5nccs5)c4)ccc3cc2c1`, for which the photoluminescence quantum yield came to 0.564 (in CC#N), 0.108 (in CCCCCC), 0.194 (in CO) and 0.433 (in ClC(Cl)Cl).

For the compound `CC(=O)c1ccc(C#Cc2ccc(-c3cc(N(C)C)c4ccccc4c3)cc2)cc1`, where the note is “in ClCCl”, the photoluminescence quantum yield came out at 0.03.

Regarding `c1ccc(-c2c3ccccc3c(-c3cncnc3)c3ccccc23)cc1`, the photoluminescence quantum yield turned out to be 0.4 (in CCO) and 0.51 (in ClCCl).

Consider `Cc1ccc(/C=C/c2ccccc2-[n+]2noc([O-])c2-c2ccccc2)cc1`, for which the photoluminescence quantum yield reads like this: (in C1CCCCC1) 0.0018; (in CC#N) 0.0048.

Compound `CCCCCCN1C(=O)c2cccc3c(-c4cc5ccccc5s4)ccc(c23)C1=O` showed a photoluminescence quantum yield (in ClC(Cl)Cl) of 0.28.

On to `C[N+]1=C(/C=C/C=C2/N(CCC[N+](C)(C)C)c3ccc(S(=O)(=O)[O-])cc3C2(C)C)C(C)(C)c2ccccc21`, for which the photoluminescence quantum yield (in CS(C)=O) was 0.1.

For `O=C1c2ccccc2-c2ccc(N3CCOCC3)c3cccc1c23`, the photoluminescence quantum yield by setting is: (in C1CCOC1) 0.15; (in CCCCCC) 0.33; (in CCO) 0.12; (in CCOC(C)=O) 0.3; (in CN(C)C=O) 0.14; (in CO) 0.12. The photoluminescence quantum yield is, setting by setting: (in Cc1ccccc1) 0.64; (in ClC(Cl)(Cl)Cl) 0.18; (in ClC(Cl)Cl) 0.53; (in ClCCl) 0.53; (in c1ccccc1) 0.68.

With `c1ccc(CSc2c3ccc(=[N+]4CCCCC4)cc-3oc3cc(N4CCCCC4)ccc23)cc1`, the photoluminescence quantum yield (in ClCCl) amounted to 0.79.

As for `N#Cc1cc(N2c3ccccc3Oc3ccccc32)c(N2c3ccccc3Oc3ccccc32)cc1C#N`, the photoluminescence quantum yield (in c1ccc2c(c1)c1ccccc1n2-c1ccc(-c2ccc(-n3c4ccccc4c4ccccc43)cc2)cc1) stood at 0.064.

`COc1ccc(C2CC(c3ccc(O)cc3)=NN2c2ccc(S(N)(=O)=O)cc2)cc1` (stereo not drawn) displayed a photoluminescence quantum yield (in C1CCOC1) of 0.78; a photoluminescence quantum yield (in C1COCCO1) of 0.73; a photoluminescence quantum yield (in CC#N) of 0.7; a photoluminescence quantum yield (in CC(C)O) of 0.55; a photoluminescence quantum yield (in CCO) of 0.47; a photoluminescence quantum yield (in CCOC(C)=O) of 0.76. Further, the photoluminescence quantum yield runs as follows: (in CN(C)C=O) 0.87; (in CO) 0.38; (in CS(C)=O) 0.88; (in O) 0.54.

For `CC1=CC(=[N+]2CCC2)C=C2C1=Nc1c(C)cc(N3CCC3)cc1[Si]2(C)C`, the photoluminescence quantum yield runs as follows: (in C1COCCO1) 0.11; (in CCO) 0.11; (in O) 0.009; (in OCCO) 0.13.
